Measurements published in patent publication US5089623A, “Certain imidate insecticides” (Imperial Chemical Industries Plc, priority 1990, dated 1992).

Assays:
Type in all cases: in vivo
[1] = tested on: Tobacco Budworm [Heliothis virescens (Fabricius)] eggs; test: Tobacco budworm egg test (TBW-E); settings: percent in solution
Text: Eggs: Paper towel patches of 2-day old eggs of the tobacco budworm were dipped in acetone solutions of the test compound and placed in petri dishes containing a portion of larval rearing medium. […] Test concentrations ranged from 0.1% downward.

[2] = tested on: Housefly [Musca domestica]; test: Housefly insecticidal test (HF); settings: per 25 female houseflies, 48 hours
[3] = tested on: Cabbage Looper [Trichoplusia ni (Hubner)]; test: Cabbage looper test (CL); settings: second-instar larvae, 3-5 days, percent in solution

SMILES	LC50 TBW E [1]	LC50 HF [2]	LC50 CL [3]
CCC(=Nc1ccc(C(C)C)cc1)OCc1cccc(Oc2ccc(F)cc2)c1 [Compound 320]	> 0.1%	> 100 µg	0.0075%
CC(C)(C)C(=Nc1ccc(Br)c(Cl)c1)OCc1cccc(Oc2ccccc2)c1 [Compound 106]	> 0.1%	> 100 µg	0.014%
CC(C)C(=Nc1ccc2c(c1)CCO2)OCc1cccc(Oc2ccccc2)c1 [Compound 243]	> 0.1%	9 µg	0.005%
CC(C)C(=Nc1cccc(C(F)(F)F)c1)OCc1cccc(Oc2cccc(F)c2)c1 [Compound 192]	0.07%	25 µg	0.0012%
C=CCOc1cccc(COC(=Nc2ccc(Cl)c(Cl)c2)C(C)C)c1 [Compound 481]	> 0.1%	> 100 µg	0.015%
Cc1ccc(Oc2cccc(COC(=Nc3ccc(F)c(Cl)c3)C(C)C)n2)cc1 [Compound 494]	> 0.1%	34 µg	0.003%
CC(C)CC(=Nc1ccc(C(C)C)cc1)OCc1cccc(Oc2ccc(F)cc2)c1 [Compound 329]	> 0.1%	7 µg	0.033%
Cc1cccc(N=C(OCc2cccc(Oc3ccccc3)c2)C(C)C)c1C [Compound 249]	0.0365%	36 µg	0.0025%
CC(C)C(=Nc1ccc(F)c(Cl)c1)OCc1cccc(Oc2ccncc2)c1 [Compound 470]	> 0.1%	25 µg	0.02%
Cc1cc(N=C(OCc2cccc(Oc3ccc(F)cc3)c2)C(C)C)ccc1F [Compound 236]	0.06%	7 µg	0.0018%
CCC(CC)C(=Nc1cccc(C(F)(F)F)c1)OCc1cccc(Oc2ccc(F)cc2)c1 [Compound 291]	> 0.1%	> 100 µg	0.004%
CC(C)(F)C(=Nc1cccc(C(F)(F)F)c1)OCc1cccc(Oc2ccc(F)cc2)c1 [Compound 319]	> 0.1%	44 µg	0.0007%
CC(C)C(=Nc1c(F)c(F)c(F)c(F)c1F)OCc1cccc(Oc2ccc(F)cc2F)c1 [Compound 232]	> 0.1%	> 100 µg	0.004%
CC(C)C(=Nc1cccc(C(F)(F)F)c1)OC(C)c1cccc(Oc2ccccc2)n1 (centres unmarked) [Compound 499]	> 0.1%	63 µg	0.0024%
CC(C)C(=Nc1cccc(SC(F)(F)F)c1)OCc1cccc(Oc2ccc(F)cc2)c1 [Compound 272]	> 0.1%	> 100 µg	0.0024%
CC(C)C(=Nc1cc(F)ccc1F)OCc1cccc(Oc2ccccc2)c1 [Compound 56]	> 0.05%	91 µg	0.01%
CCC(C)C(=Nc1ccc(Cl)cc1)OCc1cccc(Oc2ccccc2)c1 (centres unmarked) [Compound 26]	> 0.1%	> 100 µg	0.007%
CCSc1ccc(N=C(OCc2cccc(Oc3ccccc3)c2)C(C)C)cc1Cl [Compound 103]	> 0.1%	> 100 µg	0.015%
Cc1cc(N=C(OCc2cccc(Oc3ccccc3)c2)C(C)C)ccc1F [Compound 87]	0.03%	5 µg	0.004%
Cc1c(COC(=Nc2ccc(Cl)cc2)C(C)C)cccc1-c1ccccc1 [Compound 455]	> 0.1%	> 100 µg	0.0025%
CC(C)(C)C(=Nc1cccc(Br)c1)OCc1cccc(Oc2ccccc2)c1 [Compound 134]	> 0.1%	> 100 µg	0.015%
Cc1ccc(N=C(OCc2cccc(Oc3ccccc3)c2)C(C)(C)C)cc1C [Compound 167]	> 0.1%	> 100 µg	0.02%

SMILES	LC50 TBW E [1]	LC50 HF [2]	LC50 CL [3]
CC(C)C(=Nc1cccc(C(F)(F)F)c1)OCc1cccc(Oc2ccncc2)c1 [Compound 469]	> 0.1%	40 µg	0.02%
CC(C)(C)C(=Nc1cccc([N+](=O)[O-])c1)OCc1cccc(Oc2ccccc2)c1 [Compound 175]	> 0.1%	> 100 µg	0.018%
CC(C)C(=Nc1cc(F)c(F)cc1F)OCc1cccc(Oc2ccccc2)c1 [Compound 58]	0.06%	16 µg	0.002%
CCC(C)C(=Nc1ccc(Cl)c(Cl)c1)OCc1cccc(Oc2ccccc2)c1 (centres unmarked) [Compound 39]	> 0.1%	> 100 µg	0.0023%
CC(C)C(=Nc1ccc(Br)c(Br)c1)OCc1cccc(Oc2ccc(F)cc2)c1 [Compound 251]	0.06%	25 µg	0.0005%
Fc1c(F)c(F)c(COC(=Nc2cccc(Cl)c2Cl)C(Cl)Cl)c(F)c1F [Compound 454]	> 0.1%	> 100 µg	0.03%
CC(C)C(=Nc1ccc(C2CCCCC2)cc1)OCc1cccc(Oc2ccc(F)cc2)c1 [Compound 280]	> 0.1%	> 100 µg	0.024%
CC(C)(C)C(=Nc1ccc(F)cc1)OCc1cccc(Oc2ccccc2)c1 [Compound 48]	> 0.05%	> 100 µg	0.03%
FC(F)(F)c1ccc(Oc2ccc(COC(=Nc3ccc(Cl)cc3)C(Cl)Cl)cc2)nc1 [Compound 453]		> 100 µg	0.1%
CC(C)C(=Nc1ccc(C(C)(C)C)cc1)OCc1cccc(Oc2ccc(Cl)cc2)n1 [Compound 497]	> 0.1%	> 100 µg	0.0075%
COc1ccc(Cl)cc1N=C(OCc1cccc(Oc2ccccc2)c1)C(C)C [Compound 264]	> 0.1%	> 100 µg	0.03%
CC(C)C(=Nc1ccc(F)c(Cl)c1)OCc1ccc(F)c(Br)c1 [Compound 473]	> 0.1%	> 100 µg	0.025%
CC(C)C(=Nc1ccc2c(c1)OCO2)OCc1cccc(Oc2ccccc2)n1 [Compound 467]	0.04%	6 µg	0.003%
Cc1cc(N=C(OCc2cccc(Oc3ccccc3)c2)C(C)C)ccc1Br [Compound 127]	0.04%	58 µg	0.01%
CC(C)(C)C(=Nc1ccc(Cl)c([N+](=O)[O-])c1)OCc1cccc(Oc2ccccc2)c1 [Compound 105]	> 0.1%	> 100 µg	0.018%
CC(C)C(=Nc1ccc(F)c(F)c1)OCc1cccc(Oc2ccc(F)cc2F)c1 [Compound 214]	0.04%	19 µg	0.0003%
CC(C)C(=Nc1ccc(F)cc1)OCc1coc(Cc2ccccc2)c1 [Compound 491]	0.08%	9 µg	0.0028%
FC(F)(F)c1cccc(N=C(OCc2cccc(Oc3ccccc3)c2)C2CC2)c1 [Compound 86]	> 0.01%	65 µg	0.013%
CC(C)C(=Nc1ccc(OC(F)(F)F)c(Cl)c1)OCc1cc(F)cc(Oc2ccc(F)cc2)c1 [Compound 328]	> 0.1%	> 100 µg	0.03%
CC(C)C(=Nc1ccc(F)c(Cl)c1)OCc1ccc(Cl)c(Oc2ccc(F)cc2)c1 [Compound 448]	0.03%	16 µg	0.003%
CC(C)C(=Nc1ccc(F)c(Cl)c1)OC(F)c1cccc(Oc2ccc(F)cc2)c1 (centres unmarked) [Compound 502]		80 µg	
CC(C)C(=Nc1cccc(Oc2ccccn2)c1)OCc1cccc(Oc2ccccc2)c1 [Compound 114]		92 µg	< 0.1%
